Read-outs that look alike come from different tables or passages of the source.
Legend:
G551D-CFTR [1] = molecular target: T1, G551D-CFTR (Homo sapiens, UniProt P13569, G551D); experiment: Single-channel activity in reconstituted planar phospholipid bilayer; assay type: biochemical; conditions: PKA-activated, 28–30°C
G551D-CFTR [2] = molecular target: T1, G551D-CFTR; experiment: Fractional PM activity; assay type: cell-based; conditions: CFBE; forskolin-stimulated, mono-therapy or dual potentiator treatment; Fig. 5d
S1251N-CFTR = experiment: Fractional PM activity; assay type: cell-based, human; conditions: CFBE; forskolin plus single potentiator; Fig. 5f
G551D-CFTR [3] = molecular target: T1, G551D-CFTR; experiment: Short-circuit current; assay type: cell-based; conditions: for forskolin-activated Isc relative to that of WT-CFTR: forskolin 20 μM
G551D-CFTR [4] = molecular target: T1, G551D-CFTR; experiment: Short-circuit current; assay type: cell-based; conditions: CFBE; forskolin 20 μM then acute VX-770 10 μM; Fig. 5a,b

T1 sequence (P13569 whole entry G551D): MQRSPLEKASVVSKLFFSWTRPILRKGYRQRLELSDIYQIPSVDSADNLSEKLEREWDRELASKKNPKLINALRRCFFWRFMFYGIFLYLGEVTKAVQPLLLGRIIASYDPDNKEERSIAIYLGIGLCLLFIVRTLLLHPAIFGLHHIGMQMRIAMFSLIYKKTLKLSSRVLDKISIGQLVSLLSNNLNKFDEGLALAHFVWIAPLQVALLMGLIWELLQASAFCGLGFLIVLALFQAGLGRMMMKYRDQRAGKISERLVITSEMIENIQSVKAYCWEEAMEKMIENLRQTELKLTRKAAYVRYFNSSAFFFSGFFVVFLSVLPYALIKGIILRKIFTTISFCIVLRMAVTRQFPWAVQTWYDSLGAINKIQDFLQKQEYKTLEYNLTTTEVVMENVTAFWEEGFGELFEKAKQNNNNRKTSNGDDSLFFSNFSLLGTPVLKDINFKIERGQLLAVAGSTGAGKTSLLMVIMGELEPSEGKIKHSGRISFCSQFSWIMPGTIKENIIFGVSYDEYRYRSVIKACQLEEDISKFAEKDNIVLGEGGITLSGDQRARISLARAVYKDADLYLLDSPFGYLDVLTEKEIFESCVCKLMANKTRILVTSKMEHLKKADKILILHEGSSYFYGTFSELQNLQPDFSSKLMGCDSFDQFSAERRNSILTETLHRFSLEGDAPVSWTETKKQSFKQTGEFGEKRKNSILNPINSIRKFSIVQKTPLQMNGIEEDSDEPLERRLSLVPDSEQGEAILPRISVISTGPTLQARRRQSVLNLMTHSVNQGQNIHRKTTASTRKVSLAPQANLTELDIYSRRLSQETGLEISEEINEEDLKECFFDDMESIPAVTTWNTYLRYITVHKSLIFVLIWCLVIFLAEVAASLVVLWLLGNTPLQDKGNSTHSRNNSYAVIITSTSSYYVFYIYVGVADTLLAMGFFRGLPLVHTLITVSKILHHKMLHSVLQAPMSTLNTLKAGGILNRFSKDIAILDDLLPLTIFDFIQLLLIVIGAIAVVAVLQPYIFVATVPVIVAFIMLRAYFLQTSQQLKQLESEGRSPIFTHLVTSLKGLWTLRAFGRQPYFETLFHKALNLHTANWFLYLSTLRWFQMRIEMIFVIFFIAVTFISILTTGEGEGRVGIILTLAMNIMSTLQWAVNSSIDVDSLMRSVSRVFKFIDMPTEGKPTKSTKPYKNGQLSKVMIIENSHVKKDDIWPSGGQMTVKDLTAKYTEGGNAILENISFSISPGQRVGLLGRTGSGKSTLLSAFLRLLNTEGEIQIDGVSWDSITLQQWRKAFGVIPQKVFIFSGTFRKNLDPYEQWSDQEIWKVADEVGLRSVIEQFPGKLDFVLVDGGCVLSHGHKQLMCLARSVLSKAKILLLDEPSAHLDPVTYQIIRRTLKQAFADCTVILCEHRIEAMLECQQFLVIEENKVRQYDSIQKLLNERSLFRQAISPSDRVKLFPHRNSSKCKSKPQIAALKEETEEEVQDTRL

open probability (Po) of phosphorylated G551D-CFTR upon addition of apigenin (G551D-CFTR [1]; 50 μM apigenin in the presence of 3 μM VX-770) | fractional PM activity of G551D, of the WT (G551D-CFTR [2]) [%] | lower potency in comparison to VX-770 (G551D-CFTR [3]; HNE, G551D-CFTR, Isc EC50) [fold] | EC50 (G551D-CFTR [3]; read-out: EC50 for G551D-CFTR potentiation, HNE, Isc, Supplementary Fig. 6e,f) [µM] | G551D-CFTR Isc, of WT-function (G551D-CFTR [4]) | open probability (Po) of phosphorylated G551D-CFTR (G551D-CFTR [1]; 3 μM VX-770) | EC50 (G551D-CFTR [3]) [µM] | forskolin-activated Isc relative to that of WT-CFTR (G551D-CFTR [3]; HNE with G551D on both alleles) | forskolin-activated Isc relative to that of WT-CFTR (G551D-CFTR [3]; HNE with one copy of G551D) | Structure (SMILES) | fractional PM activity of S1251N after single potentiator therapy, of WT (S1251N-CFTR)
0.14 |  |  |  |  |  |  |  |  | O=c1cc(-c2ccc(O)cc2)oc2cc(O)cc(O)c12 [apigenin] | 
 | 7 | 7 | ~0.3 |  |  |  |  |  | CC1(C)Cc2c(sc(NC(=O)c3ccn[nH]3)c2C(N)=O)C(C)(C)O1 [ABBV-974] | ~ 80%
 | 6 |  |  | ~ 6% | ~ 0.08 | ~0.04 | ~ 50% | ~ 25% | CC(C)(C)c1cc(C(C)(C)C)c(NC(=O)c2c[nH]c3ccccc3c2=O)cc1O [VX-770, ivacaftor] | ~ 80%
